Experimental data from patent US20240051931A1, “HDAC INHIBITORS” (University of Pittsburgh - Of the Commonwealth System of …, priority 2020, published 2024).

How the values were obtained:
PanHDAC = PanHDAC activity at fixed concentration (Table 2); format: biochemical; design: unit not given here; details: compound at 1 uM
HDAC 6 = target: T1, HDAC 6 (Homo sapiens, UniProt Q9UBN7); test: HDAC 6 activity at fixed concentration (Table 2); format: biochemical; design: unit not given here; details: compound at 50 nM
T1 sequence (Q9UBN7 1-1215): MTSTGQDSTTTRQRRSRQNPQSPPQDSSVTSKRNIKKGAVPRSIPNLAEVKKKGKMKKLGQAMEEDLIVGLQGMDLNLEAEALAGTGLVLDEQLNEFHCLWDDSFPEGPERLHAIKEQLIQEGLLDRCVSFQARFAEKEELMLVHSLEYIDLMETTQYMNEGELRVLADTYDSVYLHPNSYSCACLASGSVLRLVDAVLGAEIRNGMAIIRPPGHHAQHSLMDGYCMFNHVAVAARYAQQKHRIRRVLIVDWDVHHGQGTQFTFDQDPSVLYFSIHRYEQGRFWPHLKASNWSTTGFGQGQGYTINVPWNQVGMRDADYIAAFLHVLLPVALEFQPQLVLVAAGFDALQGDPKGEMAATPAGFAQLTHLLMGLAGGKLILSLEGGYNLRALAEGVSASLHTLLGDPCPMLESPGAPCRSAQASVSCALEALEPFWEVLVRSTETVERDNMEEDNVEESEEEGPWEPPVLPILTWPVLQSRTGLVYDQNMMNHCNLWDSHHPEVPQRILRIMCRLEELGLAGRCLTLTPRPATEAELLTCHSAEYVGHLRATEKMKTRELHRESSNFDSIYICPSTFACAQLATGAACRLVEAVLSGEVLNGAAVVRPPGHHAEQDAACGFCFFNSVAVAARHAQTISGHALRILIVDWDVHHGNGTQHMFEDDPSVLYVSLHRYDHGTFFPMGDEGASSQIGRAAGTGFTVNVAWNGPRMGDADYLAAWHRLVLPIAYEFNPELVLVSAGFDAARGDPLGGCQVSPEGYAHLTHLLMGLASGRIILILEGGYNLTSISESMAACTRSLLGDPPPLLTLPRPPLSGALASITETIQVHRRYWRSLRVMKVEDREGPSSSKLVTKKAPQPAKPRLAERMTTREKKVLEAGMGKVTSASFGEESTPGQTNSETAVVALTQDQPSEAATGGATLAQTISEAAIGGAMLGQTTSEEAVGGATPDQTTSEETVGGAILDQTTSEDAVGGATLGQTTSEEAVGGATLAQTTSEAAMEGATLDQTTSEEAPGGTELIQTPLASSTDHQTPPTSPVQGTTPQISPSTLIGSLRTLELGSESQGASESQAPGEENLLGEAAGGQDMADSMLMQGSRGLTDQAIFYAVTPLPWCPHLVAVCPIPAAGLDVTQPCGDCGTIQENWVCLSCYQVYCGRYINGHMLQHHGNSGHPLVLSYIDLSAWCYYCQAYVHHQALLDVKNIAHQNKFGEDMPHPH

| Structure (SMILES) | melting point [°C] | PanHDAC at 1 uM (PanHDAC) | HDAC 6 at 50 nM (HDAC 6) |
| --- | --- | --- | --- |
| O=C(NO)C1CCc2cc(C#CCOC(=O)N3CCc4ccccc4C3)ccc2O1 (stereo not drawn) [Compound 36, 3-(2-(Hydroxycarbamoyl)chroman-6-yl)prop-2-yn-1-yl 3,4-dihydroisoquinoline-2(1H)-carboxylate] | 90 to 92 | – | – |
| COc1ccc(COC(=O)Nc2ccc3c(c2)CCC(C(=O)NO)O3)cc1 (stereo not drawn) [Compound 14j, 4-Methoxybenzyl (2-(hydroxycarbamoyl)chroman-6-yl)carbamate] | 149 to 151 | – | – |
| C#Cc1ccc2c(c1)CCC(C(=O)NO)O2 (stereo not drawn) [Compound 19, 6-ethynyl-N-hydroxychromane-2-carboxamide] | 161 to 163 | – | – |
| Cc1ccc(S(=O)(=O)Nc2cccc3c2OC(C(=O)NO)CC3)cc1 (stereo not drawn) [Compound 11p, N-Hydroxy-8-((4-methylphenyl)sulfonamido)chromane-2-carboxamide] | 235 to 237 | – | – |
| O=C(Nc1cccc2c1OC(C(=O)NO)CC2)OCc1ccc(C(F)(F)F)cc1 (stereo not drawn) [Compound 11f, 4-(Trifluoromethyl)benzyl (2-(hydroxycarbamoyl)chroman-8-yl)carbamate] | 102 to 104 | – | – |
| O=C(Nc1cccc2c1O[C@@H](C(=O)NO)CC2)OCc1ccccc1Cl [+11L, 2-Chlorobenzyl (R)-(2-(hydroxycarbamoyl)chroman-8-yl)carbamate] | 173 to 175 | – | – |
| O=C(NO)[C@@H]1CCc2ccc(-c3ccc(F)c(Cl)c3)cc2O1 [(S)-58d, (S)-7-(3-Chloro-4-fluorophenyl)-N-hydroxychromane-2-carboxamide] | 173 to 174 | – | – |
| O=C(NO)C1CCc2cc(CCCOC(=O)N3CCc4ccccc4C3)ccc2O1 (stereo not drawn) [Compound 40, 3-(2-(Hydroxycarbamoyl)chroman-6-yl)propyl 3,4-dihydroisoquinoline-2(1H)-carboxylate] | 82 to 84 | – | – |
| O=C(NO)C1CCc2cc(Cl)ccc2O1 (stereo not drawn) [Compound 90, 6-Chloro-N-hydroxychromane-2-carboxamide] | 160 to 162 | – | – |
| CO[C@@H]1C[C@@H](C(=O)NO)Oc2ccccc21 (relative stereo) [Compound 85, (rel)-(2S,4R)—N-Hydroxy-4-methoxychromane-2-carboxamide] | 102 to 104 | – | – |
| O=C(NO)[C@@H]1CCc2ccc(OCc3ccccc3Cl)cc2O1 [Compound 50d, (S)-7-((2-Chlorobenzyl)oxy)-N-hydroxychromane-2-carboxamide] | 141 to 147 | – | – |
| O=C(NO)C1CCc2ccc(OCc3ccccn3)cc2O1 (stereo not drawn) [Compound 50c, N-Hydroxy-7-(pyridin-2-ylmethoxy)chromane-2-carboxamide] | 125 to 128 | – | – |
| O=C(NO)C1CCc2ccc(OCc3ccc(C(F)(F)F)cc3)cc2O1 (stereo not drawn) [Compound 50a, N-Hydroxy-7-((4-(trifluoromethyl)benzyl)oxy)chromane-2-carboxamide] | 148 to 151 | – | – |
| COc1cccc(COC(=O)Nc2cccc3c2O[C@H](C(=O)NO)CC3)c1 [Compound 11g, 3-methoxybenzyl (S)-(2-(hydroxycarbamoyl)chroman-8-yl)carbamate] | 71 to 73 | – | – |
| Cn1ccc2cc(-c3ccc4c(c3)OC(C(=O)NO)CC4)ccc21 (stereo not drawn) [Compound 58b, N-Hydroxy-7-(1-methyl-1H-indol-5-yl)chromane-2-carboxamide] | 155 to 158 | – | – |
| O=C(NO)C1CCc2cc(NS(=O)(=O)c3cc(Cl)cc(Cl)c3)ccc2O1 (stereo not drawn) [Compound 14n, 6-((3,5-Dichlorophenyl)sulfonamido)-N-hydroxychromane-2-carboxamide] | 156 to 170 | – | – |
| O=C(NCc1ccccc1)Nc1cccc2c1OC(C(=O)NO)CC2 (stereo not drawn) [Compound 11e, 8-(3-Benzylureido)-N-hydroxychromane-2-carboxamide] | 187 to 190 | – | – |
| O=C(Nc1ccc2c(c1)CCC(C(=O)NO)O2)OCc1ccccc1Cl (stereo not drawn) [Compound 14k, 2-Chlorobenzyl (2-(hydroxycarbamoyl)chroman-6-yl)carbamate] | 188 to 189 | – | – |
| O=C(Nc1ccc2c(c1)CCC(C(=O)NO)O2)c1ccc(S(F)(F)(F)(F)F)cc1 (stereo not drawn) [Compound 14c, N-Hydroxy-6-(4-(pentafluoro-λ^6-sulfaneyl)benzamido)chromane-2-carboxamide] | 214 to 216 | – | – |

| Structure (SMILES) | melting point [°C] | PanHDAC at 1 uM (PanHDAC) | HDAC 6 at 50 nM (HDAC 6) |
| --- | --- | --- | --- |
| O=C(NO)C1CCc2cc(CCCOc3ccc(F)cc3)ccc2O1 (stereo not drawn) [Compound 31, 6-(3-(4-Fluorophenoxy)propyl)-N-hydroxychromane-2-carboxamide] | 145 to 147 | – | – |
| O=C(NO)C1CCc2ccc(-c3ccc(Cl)c(Cl)c3)cc2O1 (stereo not drawn) [Compound 58a, 7-(3,4-Dichlorophenyl)-N-hydroxychromane-2-carboxamide] | 167 to 169 | – | – |
| O=C(NO)C1CCc2cc(-c3ccc(Cl)c(Cl)c3)ccc2O1 (stereo not drawn) [Compound 44c, 6-(3,4-Dichlorophenyl)-N-hydroxychromane-2-carboxamide] | 89 to 91 | – | – |
| O=C(NO)C1CCc2ccc(O)cc2O1 (stereo not drawn) [Compound 55, N,7-Dihydroxychromane-2-carboxamide] | 174 to 176 | – | – |
| CN1CC(C(=O)NO)Oc2ccccc21 (stereo not drawn) [Compound 78, N-Hydroxy-4-methyl-3,4-dihydro-2H-benzo[b][1,4]oxazine-2-carboxamide] | 118 to 120 | – | – |
| O=C(Nc1cccc2c1O[C@H](C(=O)NO)CC2)OCc1ccccc1Cl [−11L, 2-Chlorobenzyl (S)-(2-(hydroxycarbamoyl)chroman-8-yl)carbamate] | 176 to 178 | – | – |
| O=C(NO)C1CCc2cccc(NS(=O)(=O)c3cccc4ccccc34)c2O1 (stereo not drawn) [Compound 11n, N-Hydroxy-8-(naphthalene-1-sulfonamido)chromane-2-carboxamide] | 219 to 221 | – | – |
| O=C(Nc1cccc2c1O[C@H](C(=O)NO)CC2)OCc1ccc(Cl)cc1 [Compound 11h, 4-Chlorobenzyl (S)-(2-(hydroxycarbamoyl)chroman-8-yl)carbamate] | 155 to 157 | – | – |
| Cl.O=C(CN1CCC2(CCc3cc(F)ccc3O2)CC1)NO | 200 to 203 | – | – |
| O=C(NCc1cccc(S(F)(F)(F)(F)F)c1)Nc1cccc2c1OC(C(=O)NO)CC2 (stereo not drawn) [Compound 1-39] | – | 0 | 34 |
| O=C(NO)C1CCc2ccc(OCCc3ccccc3)cc2O1 (stereo not drawn) [Compound 1-49] | – | 0 | 0 |
| CC(C)COC(=O)Nc1cccc2c1OC(C(=O)NO)CC2 (stereo not drawn) [Compound 1-30] | – | 0 | 29 |
| COc1ccc(CNC(=O)Nc2ccc3c(c2)CCC(C(=O)NO)O3)cc1 (stereo not drawn) [Compound 1-52] | – | 0 | 0 |
| O=C(NO)C1CCc2cc(CCCOC(=O)N3CCc4ccccc4C3)ccc2O1 (stereo not drawn) [Compound 1-16] | – | 0 | 73 |
| O=C(NO)C1CCc2cc(NS(=O)(=O)c3cc(Cl)cc(Cl)c3)ccc2O1 (stereo not drawn) [Compound 1-14] | – | 21 | 0 |
| Cc1ccc(COc2ccc3c(c2)OC(C(=O)NO)CC3)cc1 (stereo not drawn) [Compound 1-44] | – | 0 | 29 |
| O=C(NO)C1CCc2ccc(OCc3ccc(Cl)cc3)cc2O1 (stereo not drawn) [Compound 1-50] | – | 0 | 48 |
| O=C(NCc1ccccc1)Nc1cccc2c1OC(C(=O)NO)CC2 (stereo not drawn) [Compound 1-12] | – | 0 | 28 |
| COc1ccccc1COC(=O)Nc1cccc2c1O[C@H](C(=O)NO)CC2 [Compound 1-66] | – | 0 | 31 |
